These results are taken from patent US8309765B2, “Process for manufacture of high purity D-(−)-N,N-diethyl-2-(α-naphthoxy) propionamide” (United Phosphorus Limited, priority 2007, dated 2012).

A short description of one series: water solubility. It counts as physicochemical.
A short description of series [1]: stability in the presence of UV radiation. Format: physicochemical.
For a further series, the system named is certain weeds. The conditions noted are these: cited from earlier work.

Values after ≈ are worked out from the molar mass of the structure shown.

As a reminder, the solubility is the concentration that dissolves in the medium under given conditions. The low end stands for a poorly soluble substance, the high end for a readily soluble substance. `CCN(CC)C(=O)C(C)Oc1cccc2ccccc12` (racemic) [Racemic form of -(−)-N,N-diethyl-2-(α-naphthoxy)propionamide, N,N-diethyl-2-(α-naphthoxy)propionamide, reference compound] showed a solubility in “water solubility” (water, at 20° C.) of 73 µg/mL (≈ 269 µM). The “stability in the presence of UV radiation / UV light, colour change” value in series [1] is reported as “decomposes in the presence of UV radiation with colour change”.
`CCN(CC)C(=O)[C@@H](C)Oc1cccc2ccccc12` [D-(−)-N,N-diethyl-2-(α-naphthoxy)propionamide] displayed a water solubility in the series “water solubility” of 50 mg/1 ltr. In addition, in the series with certain weeds ((D)-isomer vs (L)-isomer), the “activity relative to the (L)-isomer” value is given as 8 times. In the series on certain weeds ((D)-isomer vs racemic mixture), the “activity relative to the racemic mixture” value is 1.7-2 times. Besides, the “stability in the presence of UV radiation / UV light, colour change” value in series [1] is listed as “stable in the presence of UV light”.
